Assay [1] in a line: Inhibition of beta lactamase CTX-M assessed as hydrolysis of beta lactam up to 5 mM by spectrometry analysis.
Assay [2] can be described thus: Inhibition of beta lactamase AmpC assessed as hydrolysis of beta lactam by spectrometry analysis.
Assay [3] can be described thus: Inhibition of beta lactamase CTX-M assessed as hydrolysis of beta lactam by spectrometry analysis.
Assay [4] is described as follows: Inhibition of beta lactamase CTX-M assessed as hydrolysis of beta lactam at 250 uM by spectrometry analysis.

This note sets out measurements from ChEMBL document CHEMBL1212713, “Molecular docking and ligand specificity in fragment-based inhibitor discovery” (Nat Chem Biol, 2009).

Calls of active or inactive are those of the source.

As to `O=C(O)C[C@@H]1NC(=O)[C@H](Cc2ccccc2)NC1=O`, the inhibition result in assay [1] is “inactive”.

Consider `C[C@H]1Cc2ccccc2N1C(=O)CSc1nnnn1C1CCCC1`, for which the inhibition entry in assay [1] is “inactive”.

On to `O=C(O)CN1C(=O)c2ccc(F)cc2C1=O`, for which the inhibition result in assay [1] was “inactive”.

For `Cc1ccccc1C(=O)N[C@@H](C)C(=O)O`, in assay [1], the inhibition result was “inactive”.

Consider `O=C(O)C1CC(O)CN1` (configuration not stated), for which the inhibition result in assay [1] was “inactive”.

As to `O=C1C=CC(=O)[C@@H]2CC=C[C@@H](C(=O)O)[C@H]12`, the inhibition result in assay [1] was “inactive”.

For `Cc1[nH]c(C(=O)O)c(C)c1[C@H](C)O`, in assay [1], the inhibition entry is “inactive”.

Consider `O=C(O)c1ccc(Cl)c(N2CCCC2=O)c1`, for which, in assay [1], the inhibition entry was “inactive”.

For the compound `CC(=O)Nc1sccc1C(=O)O`, the inhibition entry in assay [1] was “inactive”.

Regarding `O=C(O)c1n[nH]c2c1CCC2`, the inhibition entry in assay [1] is “inactive”.

In the case of `O=C(O)CN1C(=O)O[C@@H](c2ccccc2)C1=O`, the Ki was found to be 3500 µM in assay [2] and 700 µM in assay [3].

For `O=C(O)Cc1cc(=O)[nH]c2ccccc12`, the inhibition entry in assay [1] was “inactive”.

For `O=C1C=C(S(=O)(=O)O)c2ccccc2C1=O`, the Ki in assay [3] is 1000 µM.

Take `O=C(Nc1nncs1)c1ccccc1F`: in assay [1], the inhibition result was “inactive”.

For `O=C(Nc1nncs1)c1ccccc1O`, in assay [1], the inhibition result was “inactive”.

Turning to `Cc1ccc(N[C@H](CC(=O)c2ccccc2)C(=O)O)cc1C`, the inhibition result in assay [1] was “inactive”.

As to `Cn1cc(C(=O)Nc2cccc(-c3nn[nH]n3)c2)c2ccccc21`, the Ki in assay [3] was determined as 10 µM. The inhibition result in assay [4] is “Active”.

Turning to `C[C@@H]1C[C@H](C)CN(S(=O)(=O)c2cccc(C(=O)O)c2)C1`, the inhibition entry in assay [1] is “inactive”.

As to `Cc1ccc(-n2nc(C(N)=O)c(=O)cc2C)cc1`, in assay [1], the inhibition result was “inactive”.

Take `Cc1oc(S(=O)(=O)N2CCCCC2)cc1C(=O)O`: the inhibition result in assay [1] was “inactive”.

With `O=C(O)c1cccc(OCc2cn3ccccc3n2)c1`, the inhibition entry in assay [1] is “inactive”.

`Cc1cc(C)cc(NC(=O)N(CCC(=O)O)Cc2ccccc2)c1`: the inhibition result in assay [1] is “inactive”.

Turning to `O=CNc1ccccc1C(=O)O`, in assay [1], the inhibition result was “inactive”.

`Cc1ccc(C(=O)NCC(=O)O)s1`: in assay [1], the inhibition result is “inactive”.

Consider `O=C(O)Cc1ccc(C(=O)c2cccs2)s1`, for which, in assay [1], the inhibition entry was “inactive”.

For the compound `C[C@@H](Oc1cc(O)c2c(=O)cc(-c3ccccc3)oc2c1)C(=O)O`, the inhibition entry in assay [1] is “inactive”.

As for `O=C(O)c1cc(=O)c2cc(F)ccc2o1`, in assay [1], the inhibition entry is “inactive”.

On to `O=C(O)[C@@H]1C[C@@H](C(=O)O)N1`, for which, in assay [1], the inhibition result was “inactive”.

On to `O=C(O)[C@@H](Cc1ccco1)P(=O)(O)CN1CCOCC1`, for which the inhibition result in assay [1] was “inactive”.

On to `O=C(O)[C@H]1C[C@H](O)CN1Cc1ccccc1`, for which the inhibition entry in assay [1] is “inactive”.

As for `Cc1onc(C(N)=O)c1C(=O)Nc1nccs1`, the inhibition entry in assay [1] is “inactive”.

In the case of `C[C@H]1CCc2n[nH]c(C(=O)O)c2C1`, the inhibition result in assay [1] is “inactive”.

In the case of `CC(=O)Nc1ccc(Sc2ccccc2C(=O)O)c(C(=O)O)c1`, the inhibition entry in assay [1] was “inactive”.

For `O=C(O)[C@H]1CC(=O)N(C2CCCC2)C1`, the inhibition result in assay [1] is “inactive”.

As for `CC(=O)c1c(O)c(C(=O)O)c(C)oc1=O`, the inhibition result in assay [1] is “inactive”.

`O=C1C[C@H](S(=O)(=O)O)c2ccccc2C1=O`: the Ki in assay [3] was 700 µM.

On to `O=C(O)[C@H]1[C@H](C(=O)NCCO)[C@H]2C=C[C@H]1C2`, for which the inhibition result in assay [1] was “inactive”.

`CCC(=O)Nc1ccccc1C(=O)C(=O)O`: in assay [1], the inhibition entry is “inactive”.

For `O=C(Nc1cccc(-c2nn[nH]n2)c1)c1csc2c1CCCC2`, in assay [4], the inhibition result is “Active”.

As to `O=C(O)CNC(=O)c1cccc2ccccc12`, the inhibition entry in assay [1] is “inactive”.

With `O=C(O)c1c[nH]c(=O)[nH]c1=O`, the inhibition entry in assay [1] is “inactive”.

For `O=C(O)/C=C/c1ccc(O)cc1`, the inhibition result in assay [1] was “inactive”.

On to `Cc1ccc(NC(=O)/C=C/C(=O)O)cc1`, for which the inhibition entry in assay [1] was “inactive”.

In the case of `Cc1ccoc1C(=O)NCc1occc1C(=O)O`, in assay [1], the inhibition entry is “inactive”.

For `O=C1C=C(O)[C@@H](C(=O)O)[C@H](c2ccccc2)C1`, in assay [1], the inhibition entry was “inactive”.

Take `O=C(O)c1ccccc1N[C@H](C(=O)O)c1ccccc1`: the inhibition result in assay [1] was “inactive”.

As to `O=C(O)C[C@@H](NC(=O)c1ccccc1F)c1ccc2c(c1)OCO2`, the inhibition entry in assay [1] was “inactive”.

For the compound `N#Cc1ccsc1NC(=O)c1ccccn1`, the inhibition result in assay [1] is “inactive”.

As for `O=C(Nc1cccc(-c2nn[nH]n2)c1)[C@H](Sc1ccccc1)c1ccccc1`, the Ki in assay [3] is 12 µM. The inhibition entry in assay [4] is “Active”.

For the compound `O=C1NC(=O)[C@H](Nc2ccccc2C(=O)O)S1`, in assay [1], the inhibition result is “inactive”.

Take `O=C(O)c1sc(C(=O)O)c(-c2ccco2)c1-c1ccco1`: the inhibition entry in assay [1] was “inactive”.

Regarding `Cc1cc(C(=O)Nc2ccc(CC(=O)O)cc2)c(C)o1`, in assay [1], the inhibition result is “inactive”.

As to `NS(=O)(=O)c1cccc(C(=O)O)c1`, the inhibition result in assay [1] was “inactive”.

With `O=C(O)CSc1nc(O)cc(O)n1`, the inhibition result in assay [1] was “inactive”.

Regarding `CC(=O)C1=C(O)C(O)N([C@@H](C)C(=O)O)[C@H]1c1ccccc1` (some centres not stated), in assay [1], the inhibition entry is “inactive”.

As to `Cc1nc2cc(C(=O)Nc3cccc(-c4nn[nH]n4)c3)ccc2n1-c1ccccc1`, the inhibition result in assay [4] was “Active”.

For `O=C(O)c1cc(=O)cc2n1CCNC2=O`, the inhibition entry in assay [1] was “inactive”.

`c1ccc(COc2cccc(-c3nn[nH]n3)c2)cc1`: the Ki in assay [3] turned out to be 1000 µM.

`Cc1ccc(NC(=O)[C@H]2CCC(=O)N2)c(C)c1`: in assay [1], the inhibition entry was “inactive”.

With `O=C(O)[C@@H]1C[C@H]1C(=O)N1CCc2ccccc21`, the inhibition result in assay [1] was “inactive”.

As to `O=C(O)c1cccc(COc2ccc(CO)cc2)c1`, the inhibition result in assay [1] was “inactive”.

Regarding `CC(=O)NCC(=O)O`, the inhibition entry in assay [1] is “inactive”.

With `O=C(O)CC(=O)Nc1ccccc1`, in assay [1], the inhibition result was “inactive”.

Turning to `O=C(O)c1ccc(=O)[nH]n1`, the inhibition entry in assay [1] is “inactive”.

Regarding `O=C(O)c1ccc(=O)oc1`, the inhibition result in assay [1] was “inactive”.

On to `CCOC(=O)c1c(C(=O)O)[nH]c(C(=O)OCc2ccccc2)c1C`, for which the inhibition entry in assay [1] is “inactive”.

Turning to `O=C(O)c1cccc(S(=O)(=O)Nc2ccccn2)c1`, the inhibition entry in assay [1] is “inactive”.

As for `O=C(O)Cc1ccccc1O`, the inhibition entry in assay [1] is “inactive”.

On to `O=C(O)/C=C/c1ccc(O)c(O)c1`, for which the inhibition result in assay [1] is “inactive”.

Consider `Nc1sc2c(c1-c1nn[nH]n1)CCCC2`, for which, in assay [3], the Ki was found to be 3000 µM.

For `O=C(CC1=NO[C@H](c2ccccc2O)N1)N1CCCC1`, the inhibition result in assay [1] is “inactive”.

As to `CC(=O)Nc1nc(C(=O)O)cs1`, the inhibition entry in assay [1] is “inactive”.

In the case of `CC(=O)Nc1cc(NC(C)=O)cc(C(=O)Nc2cccc(-c3nn[nH]n3)c2)c1`, the inhibition result in assay [4] is “Active”.

In the case of `O=C(O)c1cccc(S(=O)(=O)Nc2ccccc2O)c1`, the inhibition entry in assay [1] was “inactive”.

As for `O=C(O)c1cnc(O)cc1O`, in assay [1], the inhibition result was “inactive”.

As to `O=C(O)c1cccc(N2C(=O)c3ccc(Br)cc3C2=O)c1`, the inhibition entry in assay [1] is “inactive”.

Turning to `Cc1cc(C(=O)NCc2oc(C(C)(C)C)cc2C(=O)O)c(C)o1`, in assay [1], the inhibition result was “inactive”.

Regarding `CC(=O)Nc1ccc(OS(=O)(=O)c2cccc(C(=O)O)c2)cc1`, the inhibition result in assay [1] is “inactive”.

Turning to `O=C(O)Cn1cnc2ccccc21`, the inhibition result in assay [1] is “inactive”.

As for `Cc1oncc1C(=O)O`, in assay [1], the inhibition result is “inactive”.

For `O=C(O)c1cccc(-c2nc3ccccc3[nH]2)c1`, the inhibition entry in assay [1] is “inactive”.

As for `C[C@@H](NC(=O)CNC(=O)CN)C(=O)O`, the inhibition entry in assay [1] was “inactive”.

`O=C(O)C[C@H](C(=O)NCc1ccccc1)c1ccccc1`: the inhibition result in assay [1] was “inactive”.

With `O=C(O)c1cn(S(=O)(=O)c2ccccc2)c2ccccc12`, the inhibition result in assay [1] is “inactive”.

As for `CS(=O)(=O)c1cccc(C(=O)O)c1`, the inhibition result in assay [1] is “inactive”.

As for `C=C1C(=O)OC=C1C(=O)O`, the inhibition entry in assay [1] is “inactive”.

Take `O=C1C[C@H](C(=O)O)c2ccccc21`: in assay [1], the inhibition result was “inactive”.

Turning to `O=C(O)C[C@@H]1C(=O)NC(=S)N1c1ccccc1`, the inhibition result in assay [1] is “inactive”.

`C=C(CC)N/N=C1\NC(=O)[C@H](CC(=O)O)S1`: in assay [1], the inhibition result was “inactive”.

Regarding `Cc1cc(O)nc(O)c1C(=O)O`, in assay [1], the inhibition result is “inactive”.

For `O=C(O)[C@@H]1CNC(Cc2ccc(Cl)cc2)=N1`, the inhibition result in assay [1] was “inactive”.

`O=C(O)[C@@H]1C(=O)NC[C@H]1c1ccccc1`: in assay [1], the inhibition entry was “inactive”.

As for `Cc1cc(C)cc(N2C[C@@H](C(=O)O)CC2=O)c1`, in assay [1], the inhibition entry is “inactive”.

`CC(C)(C)c1ccc([C@@H](CC(=O)O)NC(=O)c2ccccc2F)cc1`: the inhibition entry in assay [1] is “inactive”.

Take `O=C1C=CC(=O)C(c2cccc(C(=O)O)c2)=C1`: in assay [1], the inhibition result is “inactive”.

With `O=C(O)C[C@H](NO)c1ccccc1`, the inhibition entry in assay [1] was “inactive”.

Consider `CCCOc1ccc([C@H](CC(=O)O)NC(=O)c2ccc(F)cc2)cc1`, for which the inhibition entry in assay [1] was “inactive”.

In the case of `O=C(O)c1ccnc([C@@H]2CCCCC2=O)c1`, the inhibition result in assay [1] was “inactive”.

On to `Cc1cc(C)c2nc(CC(=O)O)[nH]c2c1`, for which the inhibition result in assay [1] was “inactive”.

On to `O=C(O)c1ccccc1C(=O)c1ccc2c(c1)CCC2`, for which the inhibition entry in assay [1] was “inactive”.

For the compound `C[C@H](NC(=O)c1ccccc1Cl)C(=O)O`, in assay [1], the inhibition result is “inactive”.

`COc1ccc(C(=O)O)cc1S(=O)(=O)N1CCCCCC1`: the inhibition entry in assay [1] is “inactive”.

On to `O=C(O)c1ccc(Cl)c(N2C(=O)c3ccccc3C2=O)c1`, for which the inhibition entry in assay [1] is “inactive”.

Consider `Cc1ccc(NC(=O)CSc2nnc(CCC(=O)O)c(=O)[nH]2)cc1`, for which the inhibition result in assay [1] was “inactive”.
